Data from ChEMBL document CHEMBL4000244, “Probing A-form DNA: A fluorescent aminosugar probe and dual recognition by anthraquinone-neomycin conjugates” (Bioorg Med Chem, 2017).
Active and inactive are the calls of the source. No cut-off for these calls is given here.

Experiments:
[1] = Displacement of fluorescein-neomycin from d(G4C4)2 DNA at 200 nM by fluorescence assay
[2] = Binding affinity to d(G4C4)2 DNA major groove assessed as stabilization of A-from DNA conformation after 30 mins by CD spectroscopic method
[3] = Binding affinity to d(G4C4)2 DNA major groove assessed as stabilization of A-from DNA conformation by measuring induction of sharper band at 265 nanometer at drug:DNA molar ratio of 1:1 after 30 mins by CD spectroscopic method
[4] = Displacement of fluorescein-neomycin from d(G4C4)2 DNA by Scatchard plot analysis
[5] = Binding affinity to d(G4C4)2 DNA major groove assessed as stabilization of A-from DNA conformation at 0.05 to 1.5 equiv after 30 mins by fluorescein-neomycin probe based CD spectroscopic method
[6] = Binding affinity to d(G4C4)2 DNA major groove assessed as stabilization of A-from DNA conformation at 0.25 to 1.5 equiv after 30 mins by thiazole orange probe based CD spectroscopic method
[7] = Displacement of thiazole orange from d(G4C4)2 DNA by Scatchard plot analysis
[8] = Binding affinity to d(G4C4)2 DNA major groove assessed as stabilization of A-from DNA conformation at drug:DNA molar ratio of 4:1 after 30 mins by CD spectroscopic method
[9] = Displacement of fluorescein-neomycin from d(G4C4)2 DNA major groove by fluorescence titration assay

## NCC1O[C@H](O[C@H]2[C@@H](O)[C@H](O[C@@H]3[C@@H](O)[C@H](N)C[C@H](N)[C@H]3O[C@H]3O[C@H](CN)[C@@H](O)[C@H](O)[C@H]3N)O[C@@H]2CSCCNC(=S)NCCCCCCCCCCNC(=S)NCc2ccc3c(c2)C(=O)c2ccccc2C3=O)[C@H](N)[C@@H](O)[C@@H]1O (some centres undefined)
[1]
  inhibition: Active

## NCC1O[C@H](O[C@H]2[C@@H](O)[C@H](O[C@@H]3[C@@H](O)[C@H](N)C[C@H](N)[C@H]3O[C@H]3O[C@H](CN)[C@@H](O)[C@H](O)[C@H]3N)O[C@@H]2CNC(=S)NCCCNC(=S)NCc2ccc3c(c2)C(=O)c2ccccc2C3=O)[C@H](N)[C@@H](O)[C@@H]1O (some centres undefined)
[1]
  inhibition: Active

## NCC1O[C@H](O[C@H]2[C@@H](O)[C@H](O[C@@H]3[C@@H](O)[C@H](N)C[C@H](N)[C@H]3O[C@H]3O[C@H](CN)[C@@H](O)[C@H](O)[C@H]3N)O[C@@H]2CNC(=S)NCCCCCCCCCCNC(=S)NCc2ccc3c(c2)C(=O)c2ccccc2C3=O)[C@H](N)[C@@H](O)[C@@H]1O (some centres undefined)
[1]
  inhibition: Active

## OCC(F)(F)F
[2]
  Activity: Active

## NCC1O[C@H](O[C@H]2[C@@H](O)[C@H](O[C@H]3[C@H](O)[C@@H](N)C[C@@H](N)[C@@H]3O[C@H]3O[C@H](CN)[C@@H](O)[C@H](O)[C@H]3N)O[C@@H]2CO)[C@H](N)[C@@H](O)[C@@H]1O (some centres undefined)
[3]
  Activity: Active
[1]
  inhibition: inactive

## NCC1O[C@H](O[C@H]2[C@@H](O)[C@H](O[C@@H]3[C@@H](O)[C@H](N)C[C@H](N)[C@H]3O[C@H]3O[C@H](CN)[C@@H](O)[C@H](O)[C@H]3N)O[C@@H]2CSCCNC(=S)NCc2ccc3c(c2)C(=O)c2ccccc2C3=O)[C@H](N)[C@@H](O)[C@@H]1O (some centres undefined)
[4]
  Ka: 25.3 ×10⁶ /M
[1]
  inhibition: Active
[5]
  Activity: Active
[6]
  Activity: Active
[7]
  Ka: 3.62 ×10⁶ /M

## CCO
[2]
  Activity: Active

## NCC1O[C@H](O[C@H]2[C@@H](O)[C@H](O[C@@H]3[C@@H](O)[C@H](N)C[C@H](N)[C@H]3O[C@H]3O[C@H](CN)[C@@H](O)[C@H](O)[C@H]3N)O[C@@H]2CNC(=S)Nc2ccc3c(c2)C(=O)c2ccccc2C3=O)[C@H](N)[C@@H](O)[C@@H]1O (some centres undefined)
[1]
  inhibition: Active

## NCC1O[C@H](O[C@H]2[C@@H](O)[C@H](O[C@@H]3[C@@H](O)[C@H](N)C[C@H](N)[C@H]3O[C@H]3O[C@H](CN)[C@@H](O)[C@H](O)[C@H]3N)O[C@@H]2CSCCNC(=S)NCCCNC(=S)NCc2ccc3c(c2)C(=O)c2ccccc2C3=O)[C@H](N)[C@@H](O)[C@@H]1O (some centres undefined)
[1]
  inhibition: Active

## NCC1O[C@H](O[C@H]2[C@@H](O)[C@H](O[C@@H]3[C@@H](O)[C@H](N)C[C@H](N)[C@H]3O[C@H]3O[C@H](CN)[C@@H](O)[C@H](O)[C@H]3N)O[C@@H]2CSCCNC(=S)NCCCOCCCCOCCCNC(=S)NCc2ccc3c(c2)C(=O)c2ccccc2C3=O)[C@H](N)[C@@H](O)[C@@H]1O (some centres undefined)
[4]
  Ka: 4.02 ×10⁶ /M
[1]
  inhibition: Active
[7]
  Ka: 18.4 ×10⁶ /M

## O=C1c2ccccc2C(=O)c2ccccc21
[1]
  inhibition: inactive

## NCC1O[C@H](O[C@H]2[C@@H](O)[C@H](O[C@@H]3[C@@H](O)[C@H](N)C[C@H](N)[C@H]3O[C@H]3O[C@H](CN)[C@@H](O)[C@H](O)[C@H]3N)O[C@@H]2CSCCNC(=S)NCCNC(=S)NCc2ccc3c(c2)C(=O)c2ccccc2C3=O)[C@H](N)[C@@H](O)[C@@H]1O (some centres undefined)
[4]
  Ka: 2.28 ×10⁶ /M
[1]
  inhibition: Active
[7]
  Ka: 3.09 ×10⁶ /M

## NCC1O[C@H](O[C@H]2[C@@H](O)[C@H](O[C@@H]3[C@@H](O)[C@H](N)C[C@H](N)[C@H]3O[C@H]3O[C@H](CN)[C@@H](O)[C@H](O)[C@H]3N)O[C@@H]2CNC(=S)NCCNC(=S)NCc2ccc3c(c2)C(=O)c2ccccc2C3=O)[C@H](N)[C@@H](O)[C@@H]1O (some centres undefined)
[4]
  Ka: 4.88 ×10⁶ /M
[1]
  inhibition: Active
[7]
  Ka: 3.85 ×10⁶ /M

## NCCCNCCCCNCCCN
[3]
  Activity: Active

## CN1/C(=C/c2cc[n+](C)c3ccccc23)Sc2ccccc21
[8]
  Activity: inactive

## NCC1O[C@H](O[C@H]2[C@@H](O)[C@H](O[C@@H]3[C@@H](O)[C@H](N)C[C@H](N)[C@H]3O[C@H]3O[C@H](CN)[C@@H](O)[C@H](O)[C@H]3N)O[C@@H]2CNC(=S)NCCCOCCCCOCCCNC(=S)NCc2ccc3c(c2)C(=O)c2ccccc2C3=O)[C@H](N)[C@@H](O)[C@@H]1O (some centres undefined)
[4]
  Ka: 8.83 ×10⁶ /M
[1]
  inhibition: Active
[7]
  Ka: 11.8 ×10⁶ /M

## NCC1O[C@H](O[C@H]2[C@@H](O)[C@H](O[C@@H]3[C@@H](O)[C@H](N)C[C@H](N)[C@H]3O[C@H]3O[C@H](CN)[C@@H](O)[C@H](O)[C@H]3N)O[C@@H]2CNC(=S)NCc2ccc3c(c2)C(=O)c2ccccc2C3=O)[C@H](N)[C@@H](O)[C@@H]1O (some centres undefined)
[4]
  Ka: 14.1 ×10⁶ /M
[1]
  inhibition: Active
[7]
  Ka: 5.27 ×10⁶ /M
[9]
  IC50: 748 nM

## NCC1O[C@H](O[C@H]2[C@@H](O)[C@H](O[C@@H]3[C@@H](O)[C@H](N)C[C@H](N)[C@H]3O[C@H]3O[C@H](CN)[C@@H](O)[C@H](O)[C@H]3N)O[C@@H]2CSCCNC(=S)Nc2ccc3c(c2)C(=O)c2ccccc2C3=O)[C@H](N)[C@@H](O)[C@@H]1O (some centres undefined)
[1]
  inhibition: Active
